Organism: Rattus norvegicus
Experiment: DrugMatrix - Regimen: Daily Repeat
Format: toxicity, organism-based, Sprague-Dawley
Parameters: regimen Daily Repeat, gender Male, age 6-8 weeks
Conditions: in vivo, po, route oral GAVAGE, vehicle .5 % CMC; for ABSOLUTE BASOPHIL / ABSOLUTE EOSINOPHIL / ABSOLUTE LYMPHOCYTE / ABSOLUTE MONOCYTE / ABSOLUTE SEGMENTED NEUTROPHIL / BASOPHIL / EOSINOPHIL / ERYTHROCYTE COUNT / HEMATOCRIT / HEMOGLOBIN / LEUKOCYTE COUNT / LYMPHOCYTE / MEAN CORPUSCULAR HEMOGLOBIN / MEAN CORPUSCULAR HEMOGLOBIN CONCENTRATION / MEAN CORPUSCULAR VOLUME / MONOCYTE / NEUTROPHIL / NUCLEATED RED BLOOD CELLS / PLATELET COUNT: tissue Blood; for ALANINE AMINOTRANSFERASE / ALBUMIN / ALKALINE PHOSPHATASE / ASPARTATE AMINOTRANSFERASE / BLOOD UREA NITROGEN / CARBON DIOXIDE / CHLORIDE / CHOLESTEROL / CREATINE PHOSPHOKINASE / CREATININE / GLUCOSE / LACTATE DEHYDROGENASE / LIPASE / PHOSPHORUS / POTASSIUM / SODIUM / TOTAL BILIRUBIN / TOTAL PROTEIN / URIC ACID: tissue Plasma
[1] = 0 mg/kg, 72 h, dose level Control, time 3 day
[2] = 0 mg/kg, 120 h, dose level Control, time 5 day
[3] = 50 mg/kg, 72 h, dose level Low, time 3 day

SMILES: CC(/C=C1\SC(=S)N(CC(=O)O)C1=O)=C\c1ccccc1
- ABSOLUTE BASOPHIL [1]: 0 CELLS/uL
- ABSOLUTE EOSINOPHIL [1]: 0 CELLS/uL
- ABSOLUTE LYMPHOCYTE [1]: 12191.17 CELLS/uL
- ABSOLUTE MONOCYTE [1]: 183.17 CELLS/uL
- ABSOLUTE SEGMENTED NEUTROPHIL [1]: 1192.33 CELLS/uL
- BASOPHIL [1]: 0%
- EOSINOPHIL [1]: 0%
- ERYTHROCYTE COUNT [1]: 5.51 x10E6/uL
- HEMATOCRIT [1]: 35.45%
- HEMOGLOBIN [1]: 13.82 G/DL
- LEUKOCYTE COUNT [1]: 13.57 x10E3/uL
- LYMPHOCYTE [1]: 89.83%
- MEAN CORPUSCULAR HEMOGLOBIN [1]: 25.1 pg
- MEAN CORPUSCULAR HEMOGLOBIN CONCENTRATION [1]: 38.98 G/DL
- MEAN CORPUSCULAR VOLUME [1]: 64.42 fL
- MONOCYTE [1]: 1.33%
- NEUTROPHIL [1]: 8.83%
- NUCLEATED RED BLOOD CELLS [1]: 0 /100WBC
- PLATELET COUNT [1]: 1118.17 x10E3/uL
- ALANINE AMINOTRANSFERASE [1]: 55 u/L
- ALBUMIN [1]: 4.15 G/DL
- ALKALINE PHOSPHATASE [1]: 449.5 u/L
- ASPARTATE AMINOTRANSFERASE [1]: 112.83 u/L
- BLOOD UREA NITROGEN [1]: 17.33 mg/dL
- CARBON DIOXIDE [1]: 29.5 mmol/L
- CHLORIDE [1]: 101 MEQ/L
- CHOLESTEROL [1]: 70 mg/dL
- CREATINE PHOSPHOKINASE [1]: 1325.83 u/L
- CREATININE [1]: 0.18 mg/dL
- GLUCOSE [1]: 171.5 mg/dL
- LACTATE DEHYDROGENASE [1]: 386 u/L
- LIPASE [1]: 10 u/L
- PHOSPHORUS [1]: 11.57 mg/dL
- POTASSIUM [1]: 6.21 MEQ/L
- SODIUM [1]: 141.65 MEQ/L
- TOTAL BILIRUBIN [1]: 0.15 mg/dL
- TOTAL PROTEIN [1]: 5.75 G/DL
- URIC ACID [1]: 1.28 mg/dL
- ABSOLUTE BASOPHIL [2]: 0 CELLS/uL
- ABSOLUTE EOSINOPHIL [2]: 138.17 CELLS/uL
- ABSOLUTE LYMPHOCYTE [2]: 13283.17 CELLS/uL
- ABSOLUTE MONOCYTE [2]: 303.83 CELLS/uL
- ABSOLUTE SEGMENTED NEUTROPHIL [2]: 1308.17 CELLS/uL
- BASOPHIL [2]: 0%
- EOSINOPHIL [2]: 1%
- ERYTHROCYTE COUNT [2]: 5.32 x10E6/uL
- HEMATOCRIT [2]: 33.8%
- HEMOGLOBIN [2]: 13.63 G/DL
- LEUKOCYTE COUNT [2]: 15.03 x10E3/uL
- LYMPHOCYTE [2]: 88.33%
- MEAN CORPUSCULAR HEMOGLOBIN [2]: 25.68 pg
- MEAN CORPUSCULAR HEMOGLOBIN CONCENTRATION [2]: 40.35 G/DL
- MEAN CORPUSCULAR VOLUME [2]: 63.67 fL
- MONOCYTE [2]: 1.83%
- NEUTROPHIL [2]: 8.83%
- NUCLEATED RED BLOOD CELLS [2]: 0 /100WBC
- PLATELET COUNT [2]: 1097.5 x10E3/uL
- ALANINE AMINOTRANSFERASE [2]: 54.5 u/L
- ALBUMIN [2]: 4.27 G/DL
- ALKALINE PHOSPHATASE [2]: 337 u/L
- ASPARTATE AMINOTRANSFERASE [2]: 94.67 u/L
- BLOOD UREA NITROGEN [2]: 17 mg/dL
- CARBON DIOXIDE [2]: 28.33 mmol/L
- CHLORIDE [2]: 101.5 MEQ/L
- CHOLESTEROL [2]: 71.33 mg/dL
- CREATINE PHOSPHOKINASE [2]: 628.17 u/L
- CREATININE [2]: 0.19 mg/dL
- GLUCOSE [2]: 177.83 mg/dL
- LACTATE DEHYDROGENASE [2]: 500.5 u/L
- LIPASE [2]: 9.5 u/L
- PHOSPHORUS [2]: 12.3 mg/dL
- POTASSIUM [2]: 5.63 MEQ/L
- SODIUM [2]: 143.03 MEQ/L
- TOTAL BILIRUBIN [2]: 0.2 mg/dL
- TOTAL PROTEIN [2]: 6.02 G/DL
- URIC ACID [2]: 1.5 mg/dL
- ABSOLUTE BASOPHIL [3]: 0 CELLS/uL
- ABSOLUTE EOSINOPHIL [3]: 0 CELLS/uL
- ABSOLUTE LYMPHOCYTE [3]: 10745.33 CELLS/uL
- ABSOLUTE MONOCYTE [3]: 122.33 CELLS/uL
- ABSOLUTE SEGMENTED NEUTROPHIL [3]: 899 CELLS/uL
- BASOPHIL [3]: 0%
- EOSINOPHIL [3]: 0%
- ERYTHROCYTE COUNT [3]: 5.12 x10E6/uL
- HEMATOCRIT [3]: 32.47%
- HEMOGLOBIN [3]: 13.07 G/DL
- LEUKOCYTE COUNT [3]: 11.77 x10E3/uL
- LYMPHOCYTE [3]: 91.33%
- MEAN CORPUSCULAR HEMOGLOBIN [3]: 25.57 pg
- MEAN CORPUSCULAR HEMOGLOBIN CONCENTRATION [3]: 40.23 G/DL
- MEAN CORPUSCULAR VOLUME [3]: 63.67 fL
- MONOCYTE [3]: 1%
- NEUTROPHIL [3]: 7.67%
- NUCLEATED RED BLOOD CELLS [3]: 0.33 /100WBC
- PLATELET COUNT [3]: 1123 x10E3/uL
- ALANINE AMINOTRANSFERASE [3]: 53.67 u/L
- ALBUMIN [3]: 4.27 G/DL
- ALKALINE PHOSPHATASE [3]: 336 u/L
- ASPARTATE AMINOTRANSFERASE [3]: 85.33 u/L
- BLOOD UREA NITROGEN [3]: 16 mg/dL
- CARBON DIOXIDE [3]: 27.33 mmol/L
- CHLORIDE [3]: 101.67 MEQ/L
- CHOLESTEROL [3]: 75.67 mg/dL
- CREATINE PHOSPHOKINASE [3]: 291.33 u/L
- CREATININE [3]: 0.17 mg/dL
- GLUCOSE [3]: 165.67 mg/dL
- LACTATE DEHYDROGENASE [3]: 165.67 u/L
- LIPASE [3]: 9.33 u/L
- PHOSPHORUS [3]: 12.33 mg/dL
- POTASSIUM [3]: 6.32 MEQ/L
- SODIUM [3]: 143.7 MEQ/L
- TOTAL BILIRUBIN [3]: 0.1 mg/dL
- TOTAL PROTEIN [3]: 5.77 G/DL
- URIC ACID [3]: 2.2 mg/dL

Reference: ChEMBL document CHEMBL3885881, “DrugMatrix”
